We go through 18 molecules from patent US20250154144A1 (CHILDREN'S HOSPITAL MEDICAL CENTER, priority 2021, published 2025).

Assay [1] deals with T1, FLT3 (Homo sapiens, UniProt P36888).
T1 sequence (P36888 610-943 limits assumed): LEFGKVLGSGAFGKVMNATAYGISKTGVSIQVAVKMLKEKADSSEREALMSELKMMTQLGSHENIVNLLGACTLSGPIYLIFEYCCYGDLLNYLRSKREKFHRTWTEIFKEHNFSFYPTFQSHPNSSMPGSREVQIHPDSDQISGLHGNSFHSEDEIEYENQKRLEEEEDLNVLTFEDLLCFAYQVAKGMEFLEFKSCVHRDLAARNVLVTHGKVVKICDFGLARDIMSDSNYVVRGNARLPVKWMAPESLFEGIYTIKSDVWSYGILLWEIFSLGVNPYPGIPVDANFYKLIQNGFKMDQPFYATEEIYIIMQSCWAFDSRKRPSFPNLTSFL
The experiment in a line: RBC HotSpot Kinase Assay, FLT3.

Assay [2] has as its target IRAK1 (Homo sapiens, UniProt P51617). The experiment in a line: RBC HotSpot Kinase Assay, IRAK1.
In assay [3] the target is T2, IRAK4 (Homo sapiens, UniProt Q9NWZ3).
T2 sequence (Q9NWZ3 1-460): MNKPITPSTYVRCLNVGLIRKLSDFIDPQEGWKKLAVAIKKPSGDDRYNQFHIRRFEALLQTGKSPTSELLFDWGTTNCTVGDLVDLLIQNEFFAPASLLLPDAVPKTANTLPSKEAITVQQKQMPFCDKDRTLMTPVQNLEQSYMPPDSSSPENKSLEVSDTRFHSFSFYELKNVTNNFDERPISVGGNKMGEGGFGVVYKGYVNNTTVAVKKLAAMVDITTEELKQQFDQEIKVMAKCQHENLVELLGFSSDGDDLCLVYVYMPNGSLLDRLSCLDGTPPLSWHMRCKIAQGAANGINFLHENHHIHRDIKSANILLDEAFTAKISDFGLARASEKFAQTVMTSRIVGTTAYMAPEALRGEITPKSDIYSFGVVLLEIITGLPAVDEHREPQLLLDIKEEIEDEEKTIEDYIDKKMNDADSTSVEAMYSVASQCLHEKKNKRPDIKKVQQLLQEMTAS
The experiment in a line: RBC HotSpot Kinase Assay, IRAK4.

Assay [4] has as its system THP1 cells. Kind of assay: Combination drug screening, Cell Titer Glo, 10 × 10 matrix, THP1 cells. Format: cell-based. Particulars: THP1 cells; for Excess HSA Score: 10 × 10. For orientation: In ATP-based viability assays light output follows the ATP content of the culture.
For assay [5], the system named is MOLM14(D835Y) cells. Format: cell-based. Particulars: MOLM14(D835Y) cells; for Excess HSA Score: 10 × 10.
Setting [6] is: combination with (+)-BAY-1251152.
Setting [7] is: combination with Eprenetapopt/APR-246.
[8] abbreviates: combination with Venetoclax (ABT-199).

pIC50: −log10 of the molar value. Like-named read-outs stand apart in the source and are kept apart here.

IRAK1, sequence (P51617 whole entry): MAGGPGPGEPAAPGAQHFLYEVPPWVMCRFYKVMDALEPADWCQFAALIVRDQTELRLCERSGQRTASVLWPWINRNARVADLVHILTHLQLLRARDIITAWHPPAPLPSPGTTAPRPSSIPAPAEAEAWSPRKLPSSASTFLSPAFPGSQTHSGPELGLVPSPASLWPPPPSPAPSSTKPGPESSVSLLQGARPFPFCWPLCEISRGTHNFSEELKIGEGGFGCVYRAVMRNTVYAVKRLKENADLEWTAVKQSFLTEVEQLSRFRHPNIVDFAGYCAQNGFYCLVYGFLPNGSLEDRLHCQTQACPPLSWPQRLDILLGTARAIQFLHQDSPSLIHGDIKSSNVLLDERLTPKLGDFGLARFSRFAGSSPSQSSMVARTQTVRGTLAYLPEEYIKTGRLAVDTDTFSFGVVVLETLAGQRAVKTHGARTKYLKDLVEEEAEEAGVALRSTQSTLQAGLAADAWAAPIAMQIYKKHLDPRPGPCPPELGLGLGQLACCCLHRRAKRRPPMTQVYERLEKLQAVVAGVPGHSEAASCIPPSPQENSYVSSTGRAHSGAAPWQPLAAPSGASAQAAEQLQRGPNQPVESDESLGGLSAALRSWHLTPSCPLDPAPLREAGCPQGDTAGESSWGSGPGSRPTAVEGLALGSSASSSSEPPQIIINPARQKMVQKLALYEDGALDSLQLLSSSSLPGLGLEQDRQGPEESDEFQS

For `COc1cc2ncc(-c3cncc(N[C@@H]4CCCNC4)n3)n2cc1C(C)(O)C(F)(F)F` (single isomer, unassigned) [Compound 64], the results for the pIC50 in assay [1] (read-out: FLT3 IC50), in assay [2] (IRAK1 IC50) and in assay [3] (IRAK4 IC50) were over 9.30, 9.00 and over 9.30, respectively.

In the case of `COc1cc2ncc(-c3cncc(N[C@H]4CNCC[C@@H]4F)n3)n2nc1C(C)(O)C(F)(F)F` (single isomer, unassigned) [Compound 80], the figures for the pIC50 in assay [1] (FLT3 IC50), in assay [2] (IRAK1 IC50) and in assay [3] (IRAK4 IC50) were over 9.30, 5.95 and 6.39, respectively.

In the case of `COc1cc2ncc(-c3cncc(N[C@H]4CNC[C@@H]4F)n3)n2nc1C(C)(O)C(F)(F)F` (single isomer, unassigned) [Compound 81], the results for the pIC50 in assay [1] (FLT3 IC50), in assay [2] (IRAK1 IC50) and in assay [3] (IRAK4 IC50) were 8.10, 5.10 and 5.60, respectively.

Take `COc1cc2ncc(-c3cncc(N[C@@H]4CCCNC4)n3)n2nc1C(C)(O)C(F)(F)F` (single isomer, unassigned) [Compound 84]: the pIC50 (usually the negative decadic logarithm of the IC50, by convention in mol/L) is 8.70 in assay [1] (FLT3 IC50), 5.52 in assay [2] (IRAK1 IC50) and 6.29 in assay [3] (IRAK4 IC50).

As for `COc1cc2ncc(-c3cncc(N[C@H]4CNCC[C@@H]4F)n3)n2cc1C(C)(O)C(F)(F)F` (single isomer, unassigned) [Compound 66], the pIC50 in assay [1] (read-out: FLT3 IC50), in assay [2] (read-out: IRAK1 IC50) and in assay [3] (read-out: IRAK4 IC50) was over 9.30 each time.

Take `COc1cc2ncc(-c3cncc(N[C@@H]4CCCNC4)n3)n2cc1C(C)(O)C(F)(F)F` (single isomer, unassigned) [Compound 63]: the pIC50 in assay [1] (FLT3 IC50) was over 9.30; in assay [2] (IRAK1 IC50) it was 8.70; in assay [3] (IRAK4 IC50) it was 9.15.

Regarding `COc1cc2ncc(-c3ccnc(N[C@H]4CNC[C@@H]4F)n3)n2cc1C(C)(O)C(F)(F)F` (single isomer, unassigned) [Compound 56], the pIC50 in assay [1] (read-out: FLT3 IC50), in assay [2] (read-out: IRAK1 IC50) and in assay [3] (read-out: IRAK4 IC50) was over 9.30 each time.

Take `COc1cc2ncc(-c3ccnc(N[C@H]4CNCC[C@@H]4F)n3)n2cc1C(C)(O)C(F)(F)F` (stereo partly drawn) [Compound 60]: the pIC50 in assay [1] (FLT3 IC50), in assay [2] (IRAK1 IC50) and in assay [3] (IRAK4 IC50) was over 9.30 throughout.

As to `CC(C)(O)c1ccc2ncc(-c3cncc(N[C@H]4CNC[C@@H]4F)n3)n2c1` [Compound 16, 2-(3-(6-(((3S,4S)-4-fluoropyrrolidin-3-yl)amino)pyrazin-2-yl)imidazo[1,2-a]pyridin-6-yl)propan-2-ol], the pIC50 in assay [1] (FLT3 IC50) was 8.30; in assay [2] (IRAK1 IC50) it was 6.63; in assay [3] (IRAK4 IC50) it was 7.89.

Turning to `COc1cc2ncc(-c3cncc(N[C@H]4CNC[C@@H]4F)n3)n2cc1C(C)(O)C(F)(F)F` (single isomer, unassigned) [Compound 62], the figures for the pIC50 in assay [1] (read-out: FLT3 IC50), in assay [2] (IRAK1 IC50) and in assay [3] (read-out: IRAK4 IC50) were over 9.30, 8.70 and over 9.30, respectively.

With `COc1cc2ncc(-c3ccnc(N[C@H]4CNC[C@@H]4F)n3)n2cc1C(C)(O)C(F)(F)F` (single isomer, unassigned) [Compound 55], the pIC50 in assay [1] (FLT3 IC50), in assay [2] (IRAK1 IC50) and in assay [3] (IRAK4 IC50) was over 9.30 in each case.

For the molecule `F[C@H]1CNC[C@@H]1Nc1nccc(-c2cnc3cc(OC4CC4)ccn23)n1` [Compound 37, 4-(7-cyclopropoxyimidazo [1,2-a]pyridin-3-yl)-N-((3S,4S)-4-fluoropyrrolidin-3-yl)pyrimidin-2-amine], the results for the pIC50 in assay [1] (FLT3 IC50), in assay [2] (IRAK1 IC50) and in assay [3] (IRAK4 IC50) were over 9.30, 7.89 and 9.00, respectively.

`CC(C)(O)c1ccc2ncc(-c3ccnc(N[C@@H]4CCCNC4)n3)n2c1` [Compound 41, (R)-2-(3-(2-(piperidin-3-ylamino)pyrimidin-4-yl)imidazo[1,2-a]pyridin-6-yl)propan-2-ol]: the pIC50 in assay [1] (FLT3 IC50) is 9.00; in assay [2] (IRAK1 IC50), 6.91; in assay [3] (IRAK4 IC50), 8.10.

Take `CC(C)(O)c1ccc2ncc(-c3cncc(N[C@@H]4CCCNC4)n3)n2c1` [Compound 17, (R)-2-(3-(6-(piperidin-3-ylamino)pyrazin-2-yl)imidazo[1,2-a]pyridin-6-yl)propan-2-ol]: the pIC50 is 8.30 in assay [1] (FLT3 IC50), 6.98 in assay [2] (IRAK1 IC50) and 8.15 in assay [3] (IRAK4 IC50).

`COc1cc2ncc(-c3ccnc(N[C@@H]4CCCNC4)n3)n2cc1C(C)(O)C(F)(F)F` (single isomer, unassigned) [Compound 59]: the “Excess HSA Score” value is −945.9 in assay [4] (setting [6]); 249.9 in assay [4] (combination with AMG-232); −164.6 in assay [4] (combination with AZD-5363); 269.2 in assay [4] (setting [7]); 205.2 in assay [4] (combination with Ivosidenib); 30.374 in assay [4] (combination with Lenalidomide). Also, the “Excess HSA Score” value in assay [4] (combination with Palbociclib) is on record as −620.1; in assay [4] (combination with Prednisolone), 486.6; in assay [4] (combination with SNDX-5613), 68.13; in assay [4] (combination with TNO-155) it was 213.8; in assay [4] (combination with Trametinib), −374.5; in assay [4] (combination with Ulixertinib), 164.2711. Besides, the “Excess HSA Score” value is −1422 in assay [4] (setting [8]); −448.2 in assay [5] (setting [6]); −416.2 in assay [5] (combination with AMG-232); −316.4244 in assay [5] (combination with AZD-5363); −22.76 in assay [5] (setting [7]); 107.6 in assay [5] (combination with Ivosidenib). The “Excess HSA Score” value in assay [5] (combination with Lenalidomide) is 395.8; in assay [5] (combination with Palbociclib), −185.3; in assay [5] (combination with Prednisolone), 66.52; in assay [5] (combination with SNDX-5613), 130.9; in assay [5] (combination with TNO-155), −722.6; in assay [5] (combination with Trametinib), −383. For the same molecule, the “Excess HSA Score” value is listed as −473 in assay [5] (combination with Ulixertinib) and −1215 in assay [5] (setting [8]). The Comments result in assay [4] (combination with Lenalidomide) is “Antagonistic”; in assay [4] (setting [8]) it was “Synergistic”; in assay [5] (combination with Prednisolone), “Antagonistic”; in assay [5] (setting [8]) it was “Synergistic”. The pIC50 in assay [1] (read-out: FLT3 IC50), in assay [2] (read-out: IRAK1 IC50) and in assay [3] (read-out: IRAK4 IC50) was over 9.30 throughout.

As for `COc1cc2ncc(-c3cncc(N[C@H]4CNCC[C@@H]4F)n3)n2cc1C(C)(O)C(F)(F)F` (single isomer, unassigned) [Compound 65], the pIC50 in assay [1] (FLT3 IC50), in assay [2] (IRAK1 IC50) and in assay [3] (IRAK4 IC50) was over 9.30 each time.

In the case of `COc1cc2ncc(-c3cncc(N[C@H]4CNCC[C@@H]4F)n3)n2nc1C(C)(O)C(F)(F)F` (single isomer, unassigned) [Compound 79], the figures for the pIC50 in assay [1] (FLT3 IC50), in assay [2] (IRAK1 IC50) and in assay [3] (IRAK4 IC50) were 8.22, 5.99 and 6.44, respectively.

Take `CC(O)(c1cn2c(-c3ccnc(N[C@H]4CNCC[C@@H]4F)n3)cnc2cn1)C(F)(F)F` (single isomer, unassigned) [Compound 58]: the pIC50 in assay [1] (FLT3 IC50) was over 9.30; in assay [2] (IRAK1 IC50) it was 9.22; in assay [3] (IRAK4 IC50) it was over 9.30.
